Reference: patent US5446025A, “Formulations and method of the percutaneous administration of leuprolide” (Abbott Laboratories, priority 1992, dated 1995)

Format: physicochemical
Procedure: Partitioning studies of leuprolide free base and the acetate, palmitate, and decanesulfonate salts were conducted in Type I glass culture tubes fitted with poly(tetrafluroethylene)-lined caps. Octanol-saturated water was used to prepare solutions of leuprolide free base and the leuprolide salts at concentrations of 500 μg/ml. Ten ml of each solution and 10 ml of water-saturated octanol were placed in the glass tubes which were then tightly capped and shaken for 24 hours at 30° C. At the end of this time, the tubes were centrifuged at 2000 rpm for ten minutes. The water and octanol layers were separated and each analyzed for the concentrations of leuprolide or leuprolide salt. The octanol-water distribution coefficients, Kd, was calculated from the ratio of concentration in the non-aqueous phase and the aqueous phase.

## CCNC(=O)[C@@H]1CCCN1C(=O)[C@H](CCCNC(=N)N)NC(=O)[C@H](CC(C)C)NC(=O)[C@@H](CC(C)C)NC(=O)[C@H](Cc1ccc(O)cc1)NC(=O)[C@H](CO)NC(=O)[C@H](Cc1c[nH]c2ccccc12)NC(=O)[C@H](Cc1c[nH]cn1)NC(=O)[C@@H]1CCC(=O)N1 [Leuprolide free base, leuprolide]
  Lipophilicity relative to the acetate salt, as measured by the octanol/water distribution coefficient: roughly six
